Article PMC8764613, “Engineering of CYP153A33 With Enhanced Ratio of Hydroxylation to Overoxidation Activity in Whole-Cell Biotransformation of Medium-Chain 1-Alkanols” (Frontiers in Bioengineering and Biotechnology, 2022)

Target: T1, CYP153A33 (Marinobacter nauticus, UniProt A1TY82)
T1 construct: gene Maqu_0600; co-expressed with P. putida CamA/CamB and E. coli FadL in E. coli BW25113(DE3) delta-fadD; with Putidaredoxin (Pseudomonas putida); Putidaredoxin reductase CamA (Pseudomonas putida)
T1 sequence (A1TY82 1-470): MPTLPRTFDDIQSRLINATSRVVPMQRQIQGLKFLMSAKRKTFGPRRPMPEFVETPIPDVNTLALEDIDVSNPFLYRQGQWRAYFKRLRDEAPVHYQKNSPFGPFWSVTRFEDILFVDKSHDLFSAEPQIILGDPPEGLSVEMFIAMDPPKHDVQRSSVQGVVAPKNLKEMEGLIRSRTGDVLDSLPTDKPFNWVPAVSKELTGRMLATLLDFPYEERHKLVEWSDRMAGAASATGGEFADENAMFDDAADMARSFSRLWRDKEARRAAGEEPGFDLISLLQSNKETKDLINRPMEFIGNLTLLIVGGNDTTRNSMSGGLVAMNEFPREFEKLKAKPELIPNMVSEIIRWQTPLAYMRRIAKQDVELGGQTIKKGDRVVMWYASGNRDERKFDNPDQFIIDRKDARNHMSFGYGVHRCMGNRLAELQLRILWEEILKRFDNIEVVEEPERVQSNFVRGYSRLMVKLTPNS
Assay: whole-cell biotransformation, GC analysis of products
Assay type: cell-based
Details: 10 mM substrate, pH 7.0, 30 °C, resting E. coli cells OD600 30 with 1% glucose, CamA/CamB and FadL co-expressed; product alpha,omega-dodecanediol

CCCCCCCCCCCCO [A, 1-dodecanol]
whole-cell biotransformation, GC analysis of products: CYP153A33-encoding gene was co-expressed with CamAB redox proteins for the whole-cell biotransformation of 1-dodecanol
